Laboratory results: publication PMC6826616, “Topical 2′-Hydroxyflavanone for Cutaneous Melanoma” (Cancers, 2019)

What was measured:
[1] = system: B16-F10 cells; experiment: Western blot densitometry of whole-cell lysates, B16-F10; format: cell-based, mouse; settings: 48 h
Method: […] Cells were harvested and lysates prepared for Western blot using a radioimmunoprecipitation assay (RIPA) buffer with a protease (complete ULTRA) and phosphatase inhibitor (PhosSTOP) cocktail (Sigma-Aldrich, St. Louis, MO, USA). […] Proteins were transferred to nitrocellulose membrane, and nonspecific binding was minimized with 1× clear milk blocking buffer +0.1%TWEEN 20 (ThermoFisher Scientific, Waltham, MA, USA) for 1 h at room temperature. All primary antibodies were purchased from Santa Cruz Biotechnology except mouse monoclonal, TNF-α (Invitrogen), (1:1000), in 1× clear milk +0.1% TWEEN 20 overnight at 4 °C. Secondary antibody from Santa Cruz Biotech (1:2000) was incubated for 1 h at room temperature in 1× clear milk, 0.1% TWEEN 20.
(§1) Supplemental data for Fig. 2C. Caspase 9
(§2) Numbers below of each blot represent protein 1.0 1.2 0.5 ND ND ND ND ND ND band intensity ratios to adequate controls after Procaspase 3 […]
(§3) RAL BP- 1 and apoptosis enzymes in SK-Mel-24, B16F0 17kD Active caspase 3 […]
(§4) 48h. Cells were plated in complete growth medium. After overnight, cells were treated with different doses of 2HF, and PARP-1 incubated for 48h. Total cell lysates (40 µg/lane) were […]
(§5) buffer. Proteins were transferred to nitrocellulose C-terminal cleaved membrane, nonspecific binding was done in 1X clear milk, PARP~89kDa
(§6) +0.1%T20 (Invitrogen) for 1h at room temperature. All primary antibodies were from (mouse monoclonal, 1.0 0.8 0.9 1.0 0.9 ND 1.0 1.1 ND Santacruze Biotechnology (1:1000), in 1X clear milk
(§7) +0.1%T20 overnight in 40C. Secondary antibody from N-terminal cleaved
(§8) Santacruze Biotech (1:2000) for 1h at room temperature in PARP~24kDa […]
(§9) Supplemental Figure 7 Supplemental data for Fig. 5.
(§10) B16F0 SK-Mel- 24 B16F10Numbers below of each blot represent protein band intensity ratios to adequate
(§11) TNF-α Full blots are presented in next 4 figures. […]
(§12) cells after treatment with 50, 100 µM 2HF for 48h.
(§13) Raf-1 Raf-1 Cells were plated in complete growth medium. After overnight, cells were treated with different doses of 2HF, […]
(§14) loaded on 4- 12% bis-tris gel, with 1X MES gel running p-MEK-1 p-MEK-1 buffer. Proteins were transferred to nitrocellulose membrane, nonspecific binding was done in 1X clear
(§15) All primary antibodies were from (mouse monoclonal, MEKK15 MEKK15 except TNF-α (American Hamster), Santacruze
(§16) 1.0 0.9 0.1 ND ND ND overnight in 40C. Secondary antibody from Santacruze Biotech (1:2000) for 1h at room temperature in 1X clear […]

[2] = system: SK-MEL-24 cells; experiment: Western blot densitometry of whole-cell lysates, SK-MEL-24; format: cell-based, human; settings: 48 h
Method: as §1, §2, §3, §4, §5, §6, §7, §8, §9, §10, §11, §12, §13, §14, §15, §16

O=C1CC(c2ccccc2O)Oc2ccccc21 (stereo not shown) [2HF, 2′-hydroxyflavanone]
Active caspase 3 band intensity ratio to control (normalized against β-Actin) ([1]; B16F10, 50 µM 2HF): 1.0 | C-terminal cleaved PARP~89kDa band intensity ratio to control (normalized against β-Actin) ([1]; B16F10, 50 µM 2HF): 1.1 | N-terminal cleaved PARP~24kDa band intensity ratio to control (normalized against β-Actin) ([1]; B16F10, 50 µM 2HF): 1.1 | PARP-1 band intensity ratio to control (normalized against β-Actin) ([1]; B16F10, 50 µM 2HF): 1.0 | Procaspase 3 band intensity ratio to control (normalized against β-Actin) ([1]; B16F10, 50 µM 2HF): 0.9 | RAL BP-1 band intensity ratio to control (normalized against β-Actin) ([1]; B16F10, 50 µM 2HF): 0.5 | Raf-1 band intensity ratio to control (normalized against β-Actin) ([1]; B16F10, 50 µM 2HF): 0.5 | PKC α band intensity ratio to control (normalized against β-Actin) ([1]; B16F10, 100 µM 2HF): 0.2 | Procaspase 3 band intensity ratio to control (normalized against β-Actin) ([1]; B16F10, 100 µM 2HF): 0.1 | TNF-α band intensity ratio to control (normalized against β-Actin) ([1]; B16F10, 100 µM 2HF): 0.3 | Active caspase 3 band intensity ratio to control (normalized against β-Actin) ([2]; SK-Mel-24, 50 µM 2HF): 0.9 | C-terminal cleaved PARP~89kDa band intensity ratio to control (normalized against β-Actin) ([2]; SK-Mel-24, 50 µM 2HF): 0.8 | Caspase 9 band intensity ratio to control (normalized against β-Actin) ([2]; SK-Mel-24, 50 µM 2HF): 1.2 | N-terminal cleaved PARP~24kDa band intensity ratio to control (normalized against β-Actin) ([2]; SK-Mel-24, 50 µM 2HF): 0.8 | PARP-1 band intensity ratio to control (normalized against β-Actin) ([2]; SK-Mel-24, 50 µM 2HF): 0.7 | Procaspase 3 band intensity ratio to control (normalized against β-Actin) ([2]; SK-Mel-24, 50 µM 2HF): 0.8 | RAL BP-1 band intensity ratio to control (normalized against β-Actin) ([2]; SK-Mel-24, 50 µM 2HF): 0.4 | Raf-1 band intensity ratio to control (normalized against β-Actin) ([2]; SK-Mel-24, 50 µM 2HF): 1.7 | TNF-α band intensity ratio to control (normalized against β-Actin) ([2]; SK-Mel-24, 50 µM 2HF): 0.4 | p-PDGFR-β band intensity ratio to control (normalized against β-Actin) ([2]; SK-Mel-24, 50 µM 2HF): 0.7 | Active caspase 3 band intensity ratio to control (normalized against β-Actin) ([2]; SK-Mel-24, 100 µM 2HF): 1.1 | C-terminal cleaved PARP~89kDa band intensity ratio to control (normalized against β-Actin) ([2]; SK-Mel-24, 100 µM 2HF): 0.9 | Caspase 9 band intensity ratio to control (normalized against β-Actin) ([2]; SK-Mel-24, 100 µM 2HF): 0.5 | N-terminal cleaved PARP~24kDa band intensity ratio to control (normalized against β-Actin) ([2]; SK-Mel-24, 100 µM 2HF): 0.4 | PARP-1 band intensity ratio to control (normalized against β-Actin) ([2]; SK-Mel-24, 100 µM 2HF): 0.1 | Procaspase 3 band intensity ratio to control (normalized against β-Actin) ([2]; SK-Mel-24, 100 µM 2HF): 0.5 | RAL BP-1 band intensity ratio to control (normalized against β-Actin) ([2]; SK-Mel-24, 100 µM 2HF): 0.1 | p-PDGFR-β band intensity ratio to control (normalized against β-Actin) ([2]; SK-Mel-24, 100 µM 2HF): 0.4
